In assay [1] the test system is total MUC1 mRNA. The assay is described as follows: MUC1 transcription assay (RT-PCR profiling screen) in P cells. In kind it is cell-based, human. The following applies: P cells, 24 hours. The method, then: qPCR was performed using a previously described protocol (Bittker, 2012). P cells seeded at 2000 cells/well in 384-well, clear bottom, white wall plates were grown for 24 hr, then treated with profiling compounds transferred by pinning to duplicate plates. JQ1 (250 nM) and DMSO were used for controls as above. After 24 hr, cells were washed and cDNAs were made using ABI Cells-to-Ct kit (Thermo Fisher Scientific®, Waltham, Mass.). MUC1 and HMBS delta Cp values were determined using a Roche LightCycler 480 Instrument and TaqMan probes for MUC1 FAM (4351368 assay ID Hs00159357_m1) and HMBS VIC (4448486-assay ID Hs00609297_m1) (Thermo Fisher Scientific®, Waltham, Mass.), in 5 μL reactions. The fold change effect of the compounds on total MUC1 mRNA was normalized to JQ1 and DMSO controls, as described above.

For assay [2] the following is noted: Munk et al., 1996; cited from earlier work.
For assay [3], the system named is rhodopsin P23H. Put plainly: GFP fluorescence in N cells expressing rhodopsin P23H-GFP. Type of assay: cell-based, human. The following applies: 5 μM, 24 hours. Here is the method: N cells plated in 96-well plates were transfected with 20 ng/well of P23H mutant rhodopsin-GFP plasmid DNA using Lipofectamine 3000 (Thermo Fisher Scientific®). Eight hr post-transfection, the cells were washed and processed as described below.
For the GFP-rhodopsin experiments (FIGS. 15D and 15E), cells were identified by digital phase contrast. GFP signal was calculated only in cells expressing GFP signal above a minimal background (to identify successfully transfected cells) and the mean intensity was averaged for each well.
Detection of MUC1-fs in P cells at baseline and following secretory pathway perturbations was performed using immunoblot and IF analyses. For immunoblot experiments (FIGS. 5E and 13D), P cells were grown in 6-well plates to high confluence. For IF experiments (FIGS. 5B-5D and 13A-13C), P cells were plated in 384-well plates at 12,000 cells/well. Following 24 hr, cells were treated with 5 μM BRD-4780 or DMSO alone, or in combination with 100 nM Bafilomycin A (B1793, Sigma-Aldrich), or 200 ng/mL Brefeldin A (B7651, Sigma-Aldrich) for a maximum period of 24 hr as indicated. For TMED9 or Nischarin depletion experiments, transduced/transfected P cells were plated either in 96-well plates at 60,000 cells/well for IF (FIGS. 6C, 6D and 14B), or grown in 6-well plates to high confluence for immunoblot detection (FIGS. 6B and 14C). […]

Assay [4] concerns P cells. Put plainly: P cell viability upon THP treatment (live imaging, rescue). In kind it is cell-based, human. Conditions: P cells.
Protocol: To study apoptosis and cell death in N and P cells, 384 well Cell Carrier Ultra plates (6057308, Perkin Elmer), pre-coated with 0.25 mg/mL Synthemax II SC Substrate (3535, Corning) were used. […] CellEvent Caspase-3/7 Green Detection Reagent (C10423, Thermo Fisher Scientific®) and DRAQ7 (DR71000, Biostatus) were used at 1:5000 to monitor apoptosis and cell death respectively. Cells were imaged daily during 4 days to monitor viability and image analysis was performed as described below. For rescue experiments, P cells were plated on 96 well Cell Carrier Ultra microplates (6055302, Perkin Elmer) at 30,000 cells/well and cultured for 24 hr. BRD-4780 (5 μM) was applied as a pretreatment for 48 hr prior to thapsigargin exposure and throughout the experiment. Thapsigargin was applied at increasing doses and the plates were imaged daily thereafter.
For the measurement of P cell rescue from THP-induced cell death by BRD-4780 (FIGS. 3I and 3J), no dyes were added to avoid any influence on cell growth. Digital phase contrast images were used for cell identification and count, and autofluorescence in the far-red channel was used for detection of dead cells. Cells with no autofluorescence were identified and calculated as live cell.
P cells were seeded 12 hr prior to profiling compound treatment at a density of 12,000 cells/well in 384 well Cell Carrier Ultra plates (6057308, Perkin Elmer), pre-coated with 0.25 mg/mL Synthemax II SC Substrate (3535, Corning). After 24 hr, CellEvent Caspase-3/7 Green Detection Reagent (C10423, Thermo Fisher Scientific®) and DRAQ7 (DR71000, Biostatus) were added at 1:5000 final dilution in the presence or absence of thapsigargin (100 nM). Cells were imaged daily during 7 days to monitor viability. Image acquisition and analysis was done as described above and viability was assessed as fraction of live cells at day 5 of thapsigargin treatment, and at the day 6 for DMSO.

The structures appear in SMILES notation.

Turning to `CC(C)[C@@H]1[C@H]2CC[C@H](C2)[C@H]1N` (racemic) [BRD-4780, 2-endo-amino-3-exo-isopropylbicyclo[2.2.1]heptane], the “effect on MUC1 transcriptional regulation” value in assay [1] is given as “no effect on MUC1 transcriptional regulation”. For the same compound, in assay [2], the “anti-hypertensive efficacy in animal studies” value was “lack of efficacy as an anti-hypertensive”. Besides, in assay [3], the “GFP fluorescence of GFP-rhodopsin P23H” value is listed as “significantly decreased GFP fluorescence at 24 hours”. Besides, in assay [4], the “rescue from THP-induced cell death” value is “rescued P cells from THP-induced cell death”.

(Values after patent US12023308B2, “Agents for reversing toxic proteinopathies” (THE BROAD INSTITUTE, INC., priority 2019, dated 2024).)
